Experiment: refractive index (Na D-line) (dimensionless); xn = mol fraction of the nth substance listed
Conditions: 100 kPa, Liquid, Standard Abbe refractometry

CCOC(=O)CCC(=O)OCC [diethyl butanedioate] + CCCC(=O)OCC
refractive index
Conditions | x2 = 0.0999 | x2 = 0.2 | x2 = 0.3003 | x2 = 0.3999 | x2 = 0.5 | x2 = 0.5997 | x2 = 0.7 | x2 = 0.7999 | x2 = 0.8999
288.15 K | 1.4198 | 1.4177 | 1.4154 | 1.413 | 1.4104 | 1.4076 | 1.4048 | 1.4016 | 1.3986
293.15 K | 1.4176 | 1.4155 | 1.4132 | 1.4107 | 1.4081 | 1.4053 | 1.4024 | 1.3992 | 1.3961
298.15 K | 1.4154 | 1.4132 | 1.4109 | 1.4084 | 1.4058 | 1.403 | 1.4 | 1.3968 | 1.3937
303.15 K | 1.4132 | 1.411 | 1.4086 | 1.4061 | 1.4035 | 1.4006 | 1.3976 | 1.3944 | 1.3912
308.15 K | 1.411 | 1.4088 | 1.4063 | 1.4038 | 1.4011 | 1.3982 | 1.3952 | 1.392 | 1.3888
313.15 K | 1.4088 | 1.4065 | 1.4041 | 1.4015 | 1.3988 | 1.3959 | 1.3928 | 1.3895 | 1.3862
318.15 K | 1.4066 | 1.4043 | 1.4018 | 1.3992 | 1.3964 | 1.3935 | 1.3904 | 1.387 | 1.3837
323.15 K | 1.4044 | 1.402 | 1.3995 | 1.3968 | 1.394 | 1.391 | 1.3878 | 1.3844 | 1.3809

— the NIST ThermoML archive (doi:10.1021/acs.jced.6b00640)
